The source of these data is patent publication US20250041412A1, “TRANSMEMBRANE NEOANTIGENIC PEPTIDES” (INSTITUT CURIE, priority 2021, published 2025).

“Also recorded” adds a separate entry of the source. Where only a bound is given, the exact number is not on record here.

For assay [1], the system named is CD8+ T cells. The experiment in a line: Priming of naive CTLs by peptide-loaded moDCs, two-colour tetramer staining (immunogenicity). Format: cell-based, human. The following applies: for expansion of specific CD8+ T cells (tetramer staining): one HLA-A2+ healthy donor, at least one magnitude order more tetramer positive cells than control without peptides; for specific CD8+ T expansions (immunogenicity): total of 6 HLA-A2+ healthy donors, FIG. 12A. The protocol: Priming of naïve CTLs. PBMCs were obtained by Ficoll gradient separation from HLA-A2+healthy blood donors. CD14+, CD4+ and CD8+ cells were purified by positive selection using magnetic beads (Miltenyi Biotec). While CD4+ and CD8+ T cells were cryopreserved until the experiment day, CD14+ fraction was cultured in the presence of IL-4 (50 ng/mL) and GM-CSF (10 ng/mL) at 10^6 cells/mL during 5 days to obtain moDCs. After this period of time, the moDCs were maturated with LPS and incubated with synthetic ER-derived peptides at a final concentration of 1 μg/mL for 2 hours. Finally, peptide-loaded moDCs were co-cultured with autologous CD4+ and CD8+ T cells in culture medium supplemented with IL-2 (10 U/ml) and IL-7 (100 ng/ml). The ER-derived peptide stimulation of specific CD8+CTL populations was assessed by MHC-I tetramer staining by flow cytometry using a combination of two-color tetramer for each peptide.
(§1) Tetramer Staining. Cells were resuspended in PBS, stained with Live/Dead Aqua-405 nm (ThermoFisher) during 20 minutes at 4° C. and washed once. After that, cells were resuspended in PBS-1% BSA containing the mix of SA-coupled tetramers and incubated in the dark at room temperature during 20 minutes. Without further washing, surface antibodies were added in PBS-1% BSA and cells were incubated 20 minutes in the dark at 4° C. Surface antibodies were a combination of anti-CD3-BV650+anti-CD8-PECy7 in combination with anti-CCR7-AF700+anti-CD45RA-BUV395 when required. Finally, cells were washed twice and resuspended in FACS buffer for flow cytometry analysis.
Priming assays were thus performed to test the ability of identified peptides to expand specific cytotoxic T cells. PBMCs from HLA-A2+healthy donors were used to generate monocyte derived-DCs (moDCs). After loading the moDCs with a mix of synthetic peptides, autologous co-culture was performed with CD4+ and CD8+ T cells. Finally, the expansion of specific CD8+ T cells was analysed by flow cytometry using two-colours tetramer staining. As a control of specific expansion, the co-culture was performed in the absence of peptides.
The same experiment was performed in order to evaluate the response in additional 5 donors. […] As a positive of expansions, mutated Melan-A peptide ([…]) were used.

In assay [2] the test system is CD8+ T cells. The experiment in a line: Tetramer staining of CD8+ T cells from LUAD patient samples (TILs, tumor, juxta tumor, lymph nodes, blood). The following applies: TILs from LUAD patients expanded with peptide mix + IL-2 or IL-2 only. Format: cell-based, human. The protocol:
as §1
Tissues and Blood samples. […]
Tumor infiltrating lymphocytes (TILs) cultures. […] Cells were feed/split as necessary during 15-20 days and cryopreserve or analyzed for tetramer staining.
In a first set of experiments tumor infiltrating lymphocytes (TILs) expanded with a mix of TE-derived peptides and Il-2, or only with Il-2, were analyzed by tetramer staining. […]
Using this strategy, CD8+ T cells present in Tumor, juxta-tumor, invaded lymph-nodes and blood derived from LUAD patient samples were thus analyzed. The cell phenotype was determined based on the expression of surface markers CCR7 and CD45RA for Naïve (CCR7+CD45+), Central Memory (CM, CCR7+CD45RA−) Effector Memory (EM, CCR7−CD45−) and Terminal Effectors (TE, CCR7−CD45+) T cells. […]

The target in assay [3] is T1, HLA-A2 molecule (HLA-A*02:01), recombinant monomer (human).
T1 construct: Peptide-free monomer that is incubated with a synthetic peptide for 48 h at 18 C; also called HLA-A2 allele; HLA-A2 monomers
The experiment in a line: HLA-A2 monomer stabilisation and tetramer formation with synthetic peptide, flow cytometry with PE anti-b2m; positive control CMV peptide.

For AILPKANTV, in the assay on CD8+ T cells [1], the “expansion of specific CD8+ T cells (tetramer staining)” value (shortened to “expansion of specific CD8+ T cells”) is “expand specific CD8+ T cells” and the “specific CD8+ T expansions (immunogenicity)” value is reported as “specific CD8+ T expansions”.

In the case of AMDGKELSL, the “specific CD8+ T expansions (immunogenicity)” value with CD8+ T cells [1] is reported as “specific CD8+ T expansions”.

In the case of FLGTRVTRV, the “specific CD8+ T expansions (immunogenicity)” value in the assay with CD8+ T cells [1] is “specific CD8+ T expansions”.

As for FLIVAEILI, the “expansion of specific CD8+ T cells” value in the assay with CD8+ T cells [1] was “expand specific CD8+ T cells”.

In the case of GLLNISHTA, in the assay on CD8+ T cells [1], the “specific CD8+ T expansions (immunogenicity)” value is recorded as “specific CD8+ T expansions”.

Regarding GLPSHVELA, the “specific CD8+ T expansions (immunogenicity)” value in the assay on CD8+ T cells [1] is “specific CD8+ T expansions; also recorded: immunogenic”. Moreover, in the assay on CD8+ T cells [2], the “CD8+ T cells / TILs recognizing the peptide (tetramer positive)” value is “found TILs recognizing peptide”.

With ILHSLVTGV, in the assay with CD8+ T cells [1], the “specific CD8+ T expansions (immunogenicity)” value is listed as “specific CD8+ T expansions”.

In the case of ILSGYGPCV, the “specific CD8+ T expansions (immunogenicity)” value in the assay with CD8+ T cells [1] is given as “specific CD8+ T expansions”.

As for ILTASITSI, the “specific CD8+ T expansions (immunogenicity)” value in the assay with CD8+ T cells [1] is on record as “specific CD8+ T expansions”.

As to LLDRFGYHV, the “specific CD8+ T expansions (immunogenicity)” value in the assay on CD8+ T cells [1] is given as “specific CD8+ T expansions”.

Regarding LLGETKVYV, in the assay on CD8+ T cells [1], the “expansion of specific CD8+ T cells” value is “expand specific CD8+ T cells” and the “specific CD8+ T expansions (immunogenicity)” value is recorded as “specific CD8+ T expansions”.

Consider LLHLESFLV, for which, in the assay on CD8+ T cells [1], the “specific CD8+ T expansions (immunogenicity)” value is reported as “specific CD8+ T expansions”.

As for LLTSWHLYL, the “specific CD8+ T expansions (immunogenicity)” value in the assay on CD8+ T cells [1] is reported as “specific CD8+ T expansions”.

In the case of MLMKTVWQA, the “specific CD8+ T expansions (immunogenicity)” value with CD8+ T cells [1] was “specific CD8+ T expansions”.

Turning to MLVTWELAL, the “specific CD8+ T expansions (immunogenicity)” value with CD8+ T cells [1] is listed as “specific CD8+ T expansions”.

As to RLADHLSFC, in the assay with CD8+ T cells [1], the “expansion of specific CD8+ T cells” value is recorded as “expand specific CD8+ T cells” and the “specific CD8+ T expansions (immunogenicity)” value is “specific CD8+ T expansions; also recorded: immunogenic”.

Regarding RLLHLESFL, in the assay with CD8+ T cells [1], the “expansion of specific CD8+ T cells” value was “expand specific CD8+ T cells” and the “specific CD8+ T expansions (immunogenicity)” value is reported as “specific CD8+ T expansions”.

RQAPGFHHA: the “specific CD8+ T expansions (immunogenicity)” value in the assay on CD8+ T cells [1] was “specific CD8+ T expansions”.

In the case of SLMQSGSPV, in the assay with CD8+ T cells [1], the “specific CD8+ T expansions (immunogenicity)” value is on record as “specific CD8+ T expansions”.

Turning to VLLTNTIWL, in the assay on CD8+ T cells [1], the “specific CD8+ T expansions (immunogenicity)” value is “specific CD8+ T expansions”.

Regarding VLMWTMAHL, the “specific CD8+ T expansions (immunogenicity)” value with CD8+ T cells [1] is reported as “specific CD8+ T expansions”.

For YLPYFLKSL, the “specific CD8+ T expansions (immunogenicity)” value in the assay with CD8+ T cells [1] was “specific CD8+ T expansions”.

As to YLWTTFFPL, in the assay on CD8+ T cells [1], the “expansion of specific CD8+ T cells” value was “expand specific CD8+ T cells” and the “specific CD8+ T expansions (immunogenicity)” value is “specific CD8+ T expansions”.

Regarding AILPKANTV (Synthetic peptide) [chimeric transcript-derived peptide AILPKANTV], in assay [3], the “percentage of fluorescence relative to positive control (HLA-A2 tetramer formation)” value was greater than 50%.

With AMDGKELSL (Synthetic peptide) [chimeric transcript-derived peptide AMDGKELSL], the “percentage of fluorescence relative to positive control (HLA-A2 tetramer formation)” value in assay [3] was greater than 50%.

FLGTRVTRV (Synthetic peptide) [chimeric transcript-derived peptide FLGTRVTRV]: the “percentage of fluorescence relative to positive control (HLA-A2 tetramer formation)” value in assay [3] was greater than 50%.

B1: chimeric transcript-derived peptide MLMKTVWQA (peptide)
peptide: MLMKTVWQA
notes: Synthetic peptide; also called peptide 80
Take B1: the “percentage of fluorescence relative to positive control (HLA-A2 tetramer formation)” value in assay [3] was greater than 50%.

For the molecule RLLHLESFL (Synthetic peptide) [chimeric transcript-derived peptide RLLHLESFL], in assay [3], the “percentage of fluorescence relative to positive control (HLA-A2 tetramer formation)” value was greater than 50%.

Take FLIVAEILI (Synthetic peptide) [chimeric transcript-derived peptide FLIVAEILI]: the “percentage of fluorescence relative to positive control (HLA-A2 tetramer formation)” value in assay [3] was greater than 50%.

B2: chimeric transcript-derived peptide RLADHLSFC (peptide)
peptide: RLADHLSFC
notes: Synthetic peptide; also called peptide 64
Regarding B2, the “percentage of fluorescence relative to positive control (HLA-A2 tetramer formation)” value in assay [3] is greater than 50%.

Turning to YLPYFLKSL (Synthetic peptide) [chimeric transcript-derived peptide YLPYFLKSL], the “percentage of fluorescence relative to positive control (HLA-A2 tetramer formation)” value in assay [3] is greater than 50%.
